Source: article PMC3260207, “Site-Directed Mutations and the Polymorphic Variant Ala160Thr in the Human Thromboxane Receptor Uncover a Structural Role for Transmembrane Helix 4” (PLoS ONE, 2012)
Where a chain is given by its changes, count along the chain named.

Assays:
[1] = target: T1, TP A160T mutant (nsSNP variant) (Homo sapiens, UniProt P21731, A160T); test: Reversal of basal (agonist-independent) calcium mobilization in transfected HEK293T cells; type: cell-based; details: HEK293T cells pre-treated with 1 µM unlabelled SQ 29,548, p<0.05
T1 construct: expressed in transfected cells; HEK293T (calcium assays)
T1 sequence (P21731 1-343 A160T): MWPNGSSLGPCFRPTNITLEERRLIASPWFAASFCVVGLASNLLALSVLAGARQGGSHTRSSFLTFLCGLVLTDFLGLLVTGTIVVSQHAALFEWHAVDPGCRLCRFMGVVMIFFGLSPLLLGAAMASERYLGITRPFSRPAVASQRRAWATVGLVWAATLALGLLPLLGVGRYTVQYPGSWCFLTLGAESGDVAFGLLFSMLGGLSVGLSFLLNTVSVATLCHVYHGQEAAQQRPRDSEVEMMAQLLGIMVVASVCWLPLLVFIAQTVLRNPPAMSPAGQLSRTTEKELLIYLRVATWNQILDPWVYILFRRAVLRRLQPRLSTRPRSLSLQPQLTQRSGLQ
Experimental: Changes in intracellular calcium were measured by using the fluorescent calcium sensitive dye Fluo-4NW (Invitrogen). After 6–8 hours of transient transfection of HEK293T cells using lipofectamine 2000, 100,000 viable cells were plated into each well of a 96-well tissue culture treated BD-falcon optilux plates. Cells mock transfected with vector pMT4 alone were used as a negative control. Following 24 hours of incubation at 37°C, the media was removed and cells were incubated with the dye Fluo-4NW (Invitrogen) containing 77 µg/ml of probenecid for 1 hour, as recommended by the manufacturer. […] Dose–response curves were generated and EC50 values calculated by nonlinear regression analysis using PRISM software version 5.0 (GraphPad Software Inc, San Diego, CA) after subtracting the responses of mock-transfected cells stimulated with same concentrations of agonists.
For estimation of calcium mobilized using the non-ratiometric calcium indicator Fluo-4NW, the ΔF/F ratio which approximately indicates calcium is calculated using the equation (19), ΔF/F = (F-Fbase)/(Fbase -B). Where F is the measured fluorescence intensity of Fluo-4NW, Fbase is the fluorescence intensity of Fluo-4NW in the cell before stimulation, and B is the background signal determined from areas adjacent to the cell. […]

[2] = target: T2, TP V110A mutant (Homo sapiens, UniProt P21731, V110A); test: Saturation radioligand binding with [3H] SQ 29,548, membranes; details: picomoles of TP per milligram of total membrane protein, mean ± S.E
T2 construct: expressed in transfected cells; HEK293T (calcium assays)
T2 sequence (P21731 1-343 V110A): T1 sequence (P21731 1-343 A160T) with V110A, T160A
Experimental: (§1) Amino acid substitutions were introduced into the synthetic TPα gene carried by the expression vector pMT4 as described previously, [29]. DNA sequences of all the mutated genes were verified by automated DNA sequencing. To minimize variations in transfection efficiency, the total amount transfected DNA was kept constant in all cases at 1 µg of DNA per 7×10^5 cells. The wild type TP or mutant genes were expressed in COS-1 cells using a DEAE-dextran based transient transfection method, [29], and in HEK293T cells using lipofectamine 2000 (Invitrogen). Except unless specified, the membranes prepared from COS-1 cells were used for radioligand binding assays and immunoblots. For intracellular calcium determination assays and immunofluorescence imaging, HEK293T cells were used. For transient transfections of HEK293T cells using the plasmid pMT4, lipofectamine 2000 (Invitrogen) mediated transfection was used as described by the manufacturer. Membranes were prepared using Buffers A and B and as described previously, [29]. The protein concentration in the resuspended membrane pellet was determined using a modified DC protein assay kit from Bio-Rad Laboratories (Hercules, CA).
(§2) These were carried out in Buffer C for 60 min at room temperature, using 2 to 20 µg of membrane protein and different concentrations of [^3H] […] Binding of [^3H] […] Competition binding assays were performed using 4 nM [^3H] […] Binding was terminated by filtering under vacuum on GF/A filters (Millipore). Filter-bound radioactivity was measured using a liquid scintillation counter. Equilibrium dissociation constants (Kd) were determined from saturation isotherms using PRISM software version 5.0 (GraphPad Software Inc, San Diego, CA, USA). The Ki values were calculated from the IC50, using the equation of Cheng and Prusoff by PRISM software version 5.0.

[3] = target: T3, TP A160S mutant (Homo sapiens, UniProt P21731, A160S); test: as above; details: picomoles of TP per milligram of total membrane protein, mean ± S.E
T3 construct: expressed in transfected cells; HEK293T (calcium assays)
T3 sequence (P21731 1-343 A160S): T1 sequence (P21731 1-343 A160T) with T160S
Experimental: as §1, §2

[4] = target: T1, TP A160T mutant (nsSNP variant); test: as above; details: picomoles of TP per milligram of total membrane protein, mean ± S.E
Experimental: as §1, §2

## O=C(O)CCC/C=C\C[C@@H]1[C@H](CNNC(=O)Nc2ccccc2)[C@H]2CC[C@@H]1O2 [SQ 29,548]
[1]
  Effect on basal (agonist-independent) calcium mobilization: significant decrease in basal activity
[2]
  Bmax, binding maximum of the ligand SQ 29,548 for the receptor: 1.8 ± 0.3 pmol/mg
[3]
  Bmax, binding maximum of the ligand SQ 29,548 for the receptor: 5.8 ± 0.5 pmol/mg
[4]
  Bmax, binding maximum of the ligand SQ 29,548 for the receptor: 1.8 ± 0.4 pmol/mg
